Source: ChEMBL document CHEMBL1201862, “PubChem BioAssay data set” (2004)
The source made the active and inactive calls.

Tests used:
Vero [1] = experiment: Vero E6 cell cytotoxicity, SAR follow-up, cytotoxicity control for West Nile virus antiviral project, synthesized analogs (AID 2244); assay type: functional; details: Chlorocebus sabaeus
[2] = A Cell Based Assay for the Identification of Probe candidate Compounds with Anti- Venezuelan Equine Encephalitis virus. [Related pubchem assays: 2409, 2419, 1621, 2238, 2405, 2024, 2065, 2402, 2414, 1635, 1650, 2244 ]; assay type: functional
Vero [3] = experiment: cytotoxicity of synthesized analogs in Vero cells, SAR follow-up, cytotoxicity control for West Nile virus antiviral project, cell-based, set II (AID 2402); assay type: functional; details: Chlorocebus sabaeus
Vero [4] = experiment: West Nile virus CPE inhibition, SAR follow-up, cell-based, synthesized analogs (AID 2238); assay type: functional; details: Chlorocebus sabaeus
Vero [5] = experiment: cytotoxicity of synthesized analogs in Vero 76, SAR follow-up, cytotoxicity control for West Nile virus antiviral project, Vero 76 cells (AID 2414); assay type: functional; details: Chlorocebus sabaeus
[6] = cytotoxicity in HPDE-C7 cells, cell-based, fluorescence, HTS (AID 430); assay type: functional; details: Homo sapiens
[7] = cytotoxicity in KRAS-transformed pancreatic duct cells, primary screen, cell-based, fluorescence, HTS (AID 431); assay type: functional; details: Homo sapiens;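 also: cell line used: HPDE-C7K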
[8] = molecular target: G-protein coupled receptor 55 (Homo sapiens, UniProt Q9Y2T6); experiment: GPR55 agonists via beta-arrestin recruitment, primary screen, imaging, U2OS cells, beta-arrestin-GFP redistribution (AID 1961); assay type: functional
Chain of G-protein coupled receptor 55 (Q9Y2T6 whole entry): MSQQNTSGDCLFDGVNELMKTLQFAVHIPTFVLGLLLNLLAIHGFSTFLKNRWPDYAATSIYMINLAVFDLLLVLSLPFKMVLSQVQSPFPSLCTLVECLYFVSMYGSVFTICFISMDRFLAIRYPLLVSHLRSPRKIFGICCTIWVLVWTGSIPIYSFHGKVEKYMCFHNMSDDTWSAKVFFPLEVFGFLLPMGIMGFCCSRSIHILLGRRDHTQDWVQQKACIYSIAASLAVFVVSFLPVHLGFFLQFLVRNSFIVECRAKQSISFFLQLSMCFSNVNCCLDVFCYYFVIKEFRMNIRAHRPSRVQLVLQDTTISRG

[9] = molecular target: T1, Tyrosine-protein phosphatase non-receptor type 7 (Homo sapiens, UniProt P35236); experiment: redox-dependent HePTP inhibition, mechanism study, biochemical, fluorescence (AID 2068); assay type: functional
T1 sequence (P35236 whole entry): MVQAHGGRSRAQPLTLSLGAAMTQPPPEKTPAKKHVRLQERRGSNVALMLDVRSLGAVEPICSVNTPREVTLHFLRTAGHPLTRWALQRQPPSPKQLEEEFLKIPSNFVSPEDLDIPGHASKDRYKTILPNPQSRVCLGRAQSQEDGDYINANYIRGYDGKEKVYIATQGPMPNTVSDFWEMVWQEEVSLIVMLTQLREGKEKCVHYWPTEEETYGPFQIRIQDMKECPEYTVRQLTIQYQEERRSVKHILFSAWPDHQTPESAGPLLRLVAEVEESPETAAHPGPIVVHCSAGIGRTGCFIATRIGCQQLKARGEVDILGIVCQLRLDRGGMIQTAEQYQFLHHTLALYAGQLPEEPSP

[10] = molecular target: Induced myeloid leukemia cell differentiation protein Mcl-1 (Homo sapiens, UniProt Q07820); assay type: functional
Chain of Induced myeloid leukemia cell differentiation protein Mcl-1 (Q07820 whole entry): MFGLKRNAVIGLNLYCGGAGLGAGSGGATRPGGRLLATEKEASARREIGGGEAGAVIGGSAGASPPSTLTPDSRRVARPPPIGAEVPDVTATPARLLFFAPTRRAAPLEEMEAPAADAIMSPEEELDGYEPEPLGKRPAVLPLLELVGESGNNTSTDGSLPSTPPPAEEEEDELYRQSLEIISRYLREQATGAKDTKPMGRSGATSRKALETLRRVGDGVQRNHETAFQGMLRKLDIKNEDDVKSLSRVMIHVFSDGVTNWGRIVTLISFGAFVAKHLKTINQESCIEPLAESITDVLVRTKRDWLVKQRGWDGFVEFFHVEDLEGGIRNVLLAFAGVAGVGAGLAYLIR

Ephrin type-A receptor 4 = Ephrin type-A receptor 4 (Mus musculus, UniProt Q03137); experiment: inhibitors of EphA4 binding to KYL peptide, primary screen, biochemical, colorimetric, mouse EphA4 (AID 689); assay type: functional
Chain of Ephrin type-A receptor 4 (Q03137 whole entry): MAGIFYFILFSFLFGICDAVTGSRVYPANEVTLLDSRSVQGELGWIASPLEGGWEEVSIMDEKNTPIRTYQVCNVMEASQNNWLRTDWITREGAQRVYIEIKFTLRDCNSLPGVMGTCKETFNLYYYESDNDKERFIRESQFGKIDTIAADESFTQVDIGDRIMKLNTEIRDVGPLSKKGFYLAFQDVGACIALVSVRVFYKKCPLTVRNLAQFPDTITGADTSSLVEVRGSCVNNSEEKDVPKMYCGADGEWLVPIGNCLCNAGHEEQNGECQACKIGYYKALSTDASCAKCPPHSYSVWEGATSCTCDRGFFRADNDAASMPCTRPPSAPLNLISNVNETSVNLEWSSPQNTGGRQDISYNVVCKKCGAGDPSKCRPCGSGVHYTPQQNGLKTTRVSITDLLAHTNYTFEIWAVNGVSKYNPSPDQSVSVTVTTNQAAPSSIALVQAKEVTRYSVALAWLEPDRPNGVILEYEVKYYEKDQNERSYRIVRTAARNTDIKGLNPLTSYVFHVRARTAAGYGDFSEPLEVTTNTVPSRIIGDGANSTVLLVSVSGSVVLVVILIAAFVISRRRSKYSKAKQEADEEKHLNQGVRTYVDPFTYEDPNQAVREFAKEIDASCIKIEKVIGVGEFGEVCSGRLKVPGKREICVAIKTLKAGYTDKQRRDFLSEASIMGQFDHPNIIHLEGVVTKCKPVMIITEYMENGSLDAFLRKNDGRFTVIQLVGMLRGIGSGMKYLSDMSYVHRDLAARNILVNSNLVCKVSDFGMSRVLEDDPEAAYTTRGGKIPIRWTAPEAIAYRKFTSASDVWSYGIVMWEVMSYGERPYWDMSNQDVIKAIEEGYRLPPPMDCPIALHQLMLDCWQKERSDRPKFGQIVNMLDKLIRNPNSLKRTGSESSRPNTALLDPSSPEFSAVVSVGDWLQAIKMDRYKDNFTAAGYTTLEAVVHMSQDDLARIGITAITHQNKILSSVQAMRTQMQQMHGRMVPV

[11] = molecular target: Polyadenylate-binding protein 1 (Homo sapiens, UniProt P11940); experiment: PABP inhibition in translation initiation, SAR follow-up (AID 435018); assay type: functional
Chain of Polyadenylate-binding protein 1 (P11940 whole entry): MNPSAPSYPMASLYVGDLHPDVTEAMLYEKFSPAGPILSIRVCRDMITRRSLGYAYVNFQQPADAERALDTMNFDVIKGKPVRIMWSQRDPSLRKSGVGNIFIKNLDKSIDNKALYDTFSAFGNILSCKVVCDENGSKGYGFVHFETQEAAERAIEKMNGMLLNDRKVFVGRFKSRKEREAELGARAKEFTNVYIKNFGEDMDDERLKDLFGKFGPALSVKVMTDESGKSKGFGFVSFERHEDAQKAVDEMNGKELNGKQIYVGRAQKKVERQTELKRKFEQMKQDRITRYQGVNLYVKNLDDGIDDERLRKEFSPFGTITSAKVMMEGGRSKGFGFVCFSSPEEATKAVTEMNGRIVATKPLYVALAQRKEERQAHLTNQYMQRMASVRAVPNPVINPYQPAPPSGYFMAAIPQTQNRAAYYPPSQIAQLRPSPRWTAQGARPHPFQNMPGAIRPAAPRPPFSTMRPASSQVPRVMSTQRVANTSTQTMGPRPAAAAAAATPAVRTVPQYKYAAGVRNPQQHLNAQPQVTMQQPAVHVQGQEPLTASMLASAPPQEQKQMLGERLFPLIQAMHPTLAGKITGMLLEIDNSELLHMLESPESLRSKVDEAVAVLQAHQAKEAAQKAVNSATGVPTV

[12] = molecular target: Eukaryotic translation initiation factor 4H (Homo sapiens, UniProt Q15056); experiment: eIF4H inhibition in translation initiation, SAR follow-up (AID 435011); assay type: functional
[13] = molecular target: T1, Tyrosine-protein phosphatase non-receptor type 7; experiment: Dose Response confirmation of compounds that inhibit HePTP. [Related pubchem assays (depositor defined):AID1059, AID1661, AID2085]; assay type: functional
[14] = molecular target: T2, Dual specificity protein phosphatase 3 (Homo sapiens, UniProt P51452); experiment: Dose Response Confirmation of compounds that inhibit VHR1 in Fluorescent Assay. [Related pubchem assays (depositor defined):AID1661, AID1878]; assay type: functional
T2 sequence (P51452 whole entry): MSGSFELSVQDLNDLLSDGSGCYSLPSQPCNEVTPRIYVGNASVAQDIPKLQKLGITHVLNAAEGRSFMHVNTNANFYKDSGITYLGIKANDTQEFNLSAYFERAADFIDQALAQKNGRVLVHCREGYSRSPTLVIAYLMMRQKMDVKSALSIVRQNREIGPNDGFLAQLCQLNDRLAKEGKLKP

[15] = molecular target: 5-hydroxytryptamine receptor 2A (Mus musculus, UniProt P35363); assay type: functional, cell-based;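 also: CHO-K1 cells with tagged receptor and beta-arrestin; agonist potency measured as compound-induced activation of the receptor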
Chain of 5-hydroxytryptamine receptor 2A (P35363 whole entry, the tested form may be a part): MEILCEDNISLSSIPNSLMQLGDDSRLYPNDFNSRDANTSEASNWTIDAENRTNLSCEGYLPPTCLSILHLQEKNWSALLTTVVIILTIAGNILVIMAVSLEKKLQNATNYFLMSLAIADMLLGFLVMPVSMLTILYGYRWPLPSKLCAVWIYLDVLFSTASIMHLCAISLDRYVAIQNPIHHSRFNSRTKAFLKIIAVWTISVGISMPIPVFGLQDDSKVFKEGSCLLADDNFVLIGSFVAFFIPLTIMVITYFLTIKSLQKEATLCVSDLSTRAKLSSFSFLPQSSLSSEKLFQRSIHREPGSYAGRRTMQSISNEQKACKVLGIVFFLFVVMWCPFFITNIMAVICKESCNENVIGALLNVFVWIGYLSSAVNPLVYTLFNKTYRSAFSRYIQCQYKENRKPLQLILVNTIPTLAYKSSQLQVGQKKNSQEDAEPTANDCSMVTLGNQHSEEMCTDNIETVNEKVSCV

[16] = molecular target: T3, Type-1 angiotensin II receptor (Homo sapiens, UniProt P30556); experiment: AT1 receptor agonists, dose response, selectivity assay for APJ receptor agonist project, cell-based, uHTS hits (AID 488865); assay type: functional;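 also: beta-arrestin recruitment to AT1 measured by enzyme fragment complementation luminescence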
T3 sequence (P30556 whole entry): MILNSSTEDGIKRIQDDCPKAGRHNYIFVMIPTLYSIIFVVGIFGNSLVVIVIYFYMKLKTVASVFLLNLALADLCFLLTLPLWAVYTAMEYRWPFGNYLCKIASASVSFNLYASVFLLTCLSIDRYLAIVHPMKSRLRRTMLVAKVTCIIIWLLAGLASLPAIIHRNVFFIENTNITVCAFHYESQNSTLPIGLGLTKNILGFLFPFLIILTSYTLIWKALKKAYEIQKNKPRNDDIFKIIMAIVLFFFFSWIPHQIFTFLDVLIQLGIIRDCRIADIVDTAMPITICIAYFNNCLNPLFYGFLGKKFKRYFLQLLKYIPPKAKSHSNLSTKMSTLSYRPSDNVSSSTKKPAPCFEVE

Hexokinase = molecular target: T4, Hexokinase (Trypanosoma brucei, UniProt Q38C41); experiment: Confirmation assay for inhibitors of Trypanosoma brucei hexokinase 1-Analogue-first series. [Related pubchem assays (depositor defined):AID1430, AID1632, AID2516, AID2560, AID2579, AID2600, AID449725, AID492951]; assay type: functional
T4 sequence (Q38C41 whole entry): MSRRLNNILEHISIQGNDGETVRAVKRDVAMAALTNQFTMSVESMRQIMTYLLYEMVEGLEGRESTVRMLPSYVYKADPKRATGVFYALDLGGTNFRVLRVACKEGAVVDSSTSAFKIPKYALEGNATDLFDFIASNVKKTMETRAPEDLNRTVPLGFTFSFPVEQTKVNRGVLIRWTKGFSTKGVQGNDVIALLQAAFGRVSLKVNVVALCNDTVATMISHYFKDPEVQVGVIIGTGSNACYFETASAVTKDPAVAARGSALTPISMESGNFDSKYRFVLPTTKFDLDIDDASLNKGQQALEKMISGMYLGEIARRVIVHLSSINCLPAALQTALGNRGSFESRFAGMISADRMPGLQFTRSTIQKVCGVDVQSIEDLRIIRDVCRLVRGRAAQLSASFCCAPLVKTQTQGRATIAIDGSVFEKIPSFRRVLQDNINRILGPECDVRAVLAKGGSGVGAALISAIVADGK

[17] = HeLa cell cytotoxicity, dose response, cytotoxicity control for MgcRacGAP inhibitor project (AID 624300); assay type: functional
[18] = molecular target: Phosphoethanolamine/phosphocholine phosphatase (Homo sapiens, UniProt Q8TCT1); experiment: SAR assay for compounds that inhibit PHOSPHO1. [Related pubchem assays (depositor defined):AID1545, AID1565, AID1574]
Chain of Phosphoethanolamine/phosphocholine phosphatase (Q8TCT1 whole entry): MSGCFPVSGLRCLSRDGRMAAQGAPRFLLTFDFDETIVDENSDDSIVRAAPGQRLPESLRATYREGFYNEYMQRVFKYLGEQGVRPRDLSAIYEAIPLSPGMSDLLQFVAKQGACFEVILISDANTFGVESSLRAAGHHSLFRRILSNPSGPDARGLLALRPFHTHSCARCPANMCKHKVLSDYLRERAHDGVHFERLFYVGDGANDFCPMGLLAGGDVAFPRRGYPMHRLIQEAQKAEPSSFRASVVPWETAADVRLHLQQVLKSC

[19] = molecular target: Mitochondrial peptide methionine sulfoxide reductase (Bos taurus, UniProt P54149); experiment: Absorbance-based biochemical high throughput dose response assay for activators of Methionine sulfoxide reductase A (MsrA).; assay type: functional
Chain of Mitochondrial peptide methionine sulfoxide reductase (P54149 whole entry): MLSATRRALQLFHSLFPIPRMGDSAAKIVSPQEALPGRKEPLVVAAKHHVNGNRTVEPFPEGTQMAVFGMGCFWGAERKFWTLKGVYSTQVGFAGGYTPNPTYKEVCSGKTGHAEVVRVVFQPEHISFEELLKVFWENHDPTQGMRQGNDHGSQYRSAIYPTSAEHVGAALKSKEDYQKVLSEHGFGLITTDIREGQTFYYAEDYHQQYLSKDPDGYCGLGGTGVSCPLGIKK

[20] = molecular target: T5, Mannose-6-phosphate isomerase (Homo sapiens, UniProt P34949); experiment: PMI enzyme inhibitors, confirmation, biochemical, fluorescence intensity (AID 1535)
T5 sequence (P34949 whole entry): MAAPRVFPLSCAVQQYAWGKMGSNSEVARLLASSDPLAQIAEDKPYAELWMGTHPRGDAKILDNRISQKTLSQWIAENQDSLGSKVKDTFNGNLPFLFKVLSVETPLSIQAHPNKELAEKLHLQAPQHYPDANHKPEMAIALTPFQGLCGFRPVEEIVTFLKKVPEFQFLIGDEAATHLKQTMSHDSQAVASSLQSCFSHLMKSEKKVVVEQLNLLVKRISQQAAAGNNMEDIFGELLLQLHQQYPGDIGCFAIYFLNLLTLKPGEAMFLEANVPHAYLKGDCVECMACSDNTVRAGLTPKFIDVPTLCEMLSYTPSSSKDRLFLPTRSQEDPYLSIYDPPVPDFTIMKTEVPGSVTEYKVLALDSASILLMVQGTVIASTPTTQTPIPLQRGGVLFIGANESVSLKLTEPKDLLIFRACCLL

[21] = molecular target: T6, Rac GTPase-activating protein 1 (Homo sapiens, UniProt Q9H0H5); experiment: MgcRacGAP GTPase-activating activity inhibitors, confirmation, biochemical, ADP Hunter fluorescence, primary and confirmatory (AID 624330); assay type: functional
T6 sequence (Q9H0H5 whole entry): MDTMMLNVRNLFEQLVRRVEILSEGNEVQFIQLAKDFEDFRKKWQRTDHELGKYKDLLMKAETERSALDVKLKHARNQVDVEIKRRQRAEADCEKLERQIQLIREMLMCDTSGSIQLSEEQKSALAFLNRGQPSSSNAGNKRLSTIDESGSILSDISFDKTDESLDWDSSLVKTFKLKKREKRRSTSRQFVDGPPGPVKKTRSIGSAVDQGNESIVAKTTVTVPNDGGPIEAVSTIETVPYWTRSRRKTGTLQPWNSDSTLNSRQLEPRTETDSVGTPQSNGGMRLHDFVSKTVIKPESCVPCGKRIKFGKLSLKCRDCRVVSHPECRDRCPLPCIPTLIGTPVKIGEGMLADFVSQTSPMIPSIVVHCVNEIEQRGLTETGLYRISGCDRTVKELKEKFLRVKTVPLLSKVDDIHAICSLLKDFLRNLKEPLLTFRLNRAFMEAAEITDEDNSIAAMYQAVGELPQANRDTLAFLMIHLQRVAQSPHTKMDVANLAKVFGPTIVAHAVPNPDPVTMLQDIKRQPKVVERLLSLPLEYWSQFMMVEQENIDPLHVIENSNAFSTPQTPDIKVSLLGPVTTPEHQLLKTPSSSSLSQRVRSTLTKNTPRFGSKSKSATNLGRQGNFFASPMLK

Phosphomannomutase 2 = Phosphomannomutase 2 (Homo sapiens, UniProt O15305); experiment: Counter screen SAR assay for PMM2 inhibitors via a fluorescence intensity assay. [Related pubchem assays (depositor defined):AID1545, AID1574]
Chain of Phosphomannomutase 2 (O15305 whole entry): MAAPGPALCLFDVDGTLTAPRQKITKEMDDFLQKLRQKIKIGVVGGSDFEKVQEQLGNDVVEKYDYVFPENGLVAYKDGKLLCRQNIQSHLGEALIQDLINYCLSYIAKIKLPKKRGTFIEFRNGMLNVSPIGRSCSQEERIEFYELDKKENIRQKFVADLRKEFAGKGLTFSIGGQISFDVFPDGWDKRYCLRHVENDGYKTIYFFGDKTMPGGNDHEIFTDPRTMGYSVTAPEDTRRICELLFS

[22] = molecular target: Glucose-6-phosphate 1-dehydrogenase (Homo sapiens, UniProt P11413); experiment: human G6PD enzyme inhibitors, dose response, selectivity assay for P. falciparum G6PD inhibitor project, biochemical, fluorescence (AID 504792); assay type: functional
Chain of Glucose-6-phosphate 1-dehydrogenase (P11413 whole entry): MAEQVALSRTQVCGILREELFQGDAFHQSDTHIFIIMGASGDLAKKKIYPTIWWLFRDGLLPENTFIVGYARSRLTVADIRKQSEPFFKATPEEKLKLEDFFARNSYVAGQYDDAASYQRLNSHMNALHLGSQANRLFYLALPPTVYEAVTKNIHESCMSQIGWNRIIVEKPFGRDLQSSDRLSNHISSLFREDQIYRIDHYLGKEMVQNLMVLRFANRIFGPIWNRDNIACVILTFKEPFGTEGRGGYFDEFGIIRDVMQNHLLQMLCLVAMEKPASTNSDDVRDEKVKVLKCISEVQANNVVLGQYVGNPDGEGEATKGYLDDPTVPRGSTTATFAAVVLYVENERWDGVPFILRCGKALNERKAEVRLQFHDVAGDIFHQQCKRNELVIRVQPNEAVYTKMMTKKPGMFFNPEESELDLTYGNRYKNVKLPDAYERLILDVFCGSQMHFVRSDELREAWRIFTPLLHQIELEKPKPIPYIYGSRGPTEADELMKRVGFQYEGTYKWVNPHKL

[23] = molecular target: T1, Tyrosine-protein phosphatase non-receptor type 7; experiment: SAR analysis of chemical inhibitors of HePTP using a Fluorescent assay - Set 2. [Related pubchem assays (depositor defined):AID1059, AID1077, AID1661, AID2085, AID521]; assay type: functional
[24] = molecular target: T2, Dual specificity protein phosphatase 3; experiment: SAR VHR1 Fluorescent Assay for In Vitro dose response studies Set 2. [Related pubchem assays (depositor defined):AID1654, AID1661, AID1878]; assay type: functional

O=C(CSc1nc2ccccc2c(=O)n1-c1ccc(Cl)cc1)Nc1ccc2c(c1)CCC2
CC50 (Vero [1]): > 40 µM (active) | IC50 [2]: 7.56 µM (active) | CC50 (Vero [3]): > 100 µM (active) | IC50 (Vero [4]): > 40 µM (active) | CC50 (Vero [5]): > 66.6 µM (active)

CC/C(Nc1ccc(OC)cc1OC)=C1/C(=O)NC(=O)N(C2CCCCC2)C1=O
EC50 [6]: 12.8 µM (active) | EC50 [7]: 16.3 µM (active) | EC50 [8]: 10.9 µM (inactive)

O=S(=O)(c1ccc2nc(-c3ccco3)c(-c3ccco3)nc2c1)N1CCOCC1
IC50 [9]: 7.46 µM (active) | IC50 [10]: 5.65 µM (active) | IC50 (Ephrin type-A receptor 4): 21.5 µM (active)

COc1ccc([N+](=O)[O-])cc1NC(=O)C(C)OC(=O)c1ccccc1C(=O)c1ccc(Cl)cc1 (configuration not stated)
IC50 [11]: > 100 µM (inactive) | IC50 [12]: > 100 µM (inactive)

Cn1c2ccccc2c(=O)c2ccc(C#Cc3ccccn3)cc21
IC50 [13]: 6.64 µM (active) | IC50 [14]: 7.2 µM (active)

COC(=O)C1=C(Cn2cnc3ccccc32)NC(=O)NC1c1cc(C)ccc1C (configuration not stated)
EC50 [15]: 8.44 µM (active) | EC50 [16]: > 100 µM (inactive)

O=c1c2ccccc2sn1-c1cccc(Cl)c1
IC50 (Hexokinase): 1.9 µM (active) | CC50 [17]: 100 µM (active) | IC50 [18]: 5.21 µM (inactive) | EC50 [19]: > 104 µM (inactive) | IC50 [20]: 3.43 µM (active) | IC50 [21]: 33.9 µM (active) | IC50 (Phosphomannomutase 2): 59.6 µM (active) | IC50 [22]: 13 µM (active)

O=S(=O)(Nc1ncccn1)c1ccc(NC(=S)N2CCN(Cc3ccc4c(c3)OCO4)CC2)cc1
IC50 [23]: > 100 µM (inactive) | IC50 [24]: > 100 µM (inactive)
